Source: patent US8404738B2 (Hoffmann-La Roche Inc., priority 2011, dated 2013)

Assays:
[1] = system: p21 promoter-luciferase construct; experiment: p21 reporter gene induction (HeLa cells, p21 promoter-luciferase construct); conditions: for p21 RP3: relative gene level of p21 compared to MS275 at 3 μM; for p21 RP10: relative level of p21 compared to MS275 at 10 μM; for p21 RP30: relative level of p21 compared to MS275 at 30 μM;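 as to all read-outs here: transfected HeLa cells exposed to compound for 15 h, luciferase luminescence read from lysates, p21 promoter lacks p53 site, proxy for cellular HDAC1/2/3 inhibition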
Method: As a surrogate for in-cell HDAC1/2/3 inhibition, p21 induction was used as a counterscreen to evaluate the selectivity of the compounds in the present invention toward HDAC6 or HDAC8.
The novel compounds of the present invention were tested for their ability to induce p21 gene expression using a reporter gene assay involving HeLa cells transfected with a p21 promoter-luciferase construct. The p21 promoter contained the Sp1/Sp3 binding site for HDAC but not the upstream p53 binding site. Briefly, the day before transfection, HeLa cells were seeded at 11,000 cells/well in a 96-well culture plate and incubated at 37° C. in 5% CO2 overnight. A transfection media was prepared prior to transfection according to the following procedure: (1) 5 μl serum-free DMEM, 0.15 μl Fugene 6 reagent, 40 ng p21-luc, 10 ng GFP were mixed gently and incubated at rt for 30 minutes; (2), then 98 μl DMEM (with 10% FBS, 1% penicillin and streptomycin) was added to the DNA: Fugene 6 reagent complex and mixed gently. For transfection, the medium was removed and replaced with 100 μl/well transfection media which was prepared according to the procedure above. After incubating the cells for 24 hours at 37° C. in 5% CO2, fresh media and test compounds were added to the wells and the cells further incubated for 15 hours at 37° C. in 5% CO2. Cells were lysed by adding 80 μl/well of a cell culture lysis reagent (Promega). 50 μl of each lysate was taken for GFP detection using an excitation wavelength of 486 nm and detection at 527 nm. 100 μl luciferase assay reagent (Promega) was then added to every 20 μl cell lysate for luminometer detection.

HDAC6 = target: T1, HDAC6 (Homo sapiens, UniProt Q9UBN7); experiment: Tubulin acetylation cytoblot assay (A549 cells); assay type: cell-based; conditions: 17-18 h incubation, tubulin acetylation as marker of HDAC6 inhibition, read-out: Tub-Ac EC50
T1 construct: endogenous in cells; host or cells: A549 cells
T1 sequence (Q9UBN7 1-1215): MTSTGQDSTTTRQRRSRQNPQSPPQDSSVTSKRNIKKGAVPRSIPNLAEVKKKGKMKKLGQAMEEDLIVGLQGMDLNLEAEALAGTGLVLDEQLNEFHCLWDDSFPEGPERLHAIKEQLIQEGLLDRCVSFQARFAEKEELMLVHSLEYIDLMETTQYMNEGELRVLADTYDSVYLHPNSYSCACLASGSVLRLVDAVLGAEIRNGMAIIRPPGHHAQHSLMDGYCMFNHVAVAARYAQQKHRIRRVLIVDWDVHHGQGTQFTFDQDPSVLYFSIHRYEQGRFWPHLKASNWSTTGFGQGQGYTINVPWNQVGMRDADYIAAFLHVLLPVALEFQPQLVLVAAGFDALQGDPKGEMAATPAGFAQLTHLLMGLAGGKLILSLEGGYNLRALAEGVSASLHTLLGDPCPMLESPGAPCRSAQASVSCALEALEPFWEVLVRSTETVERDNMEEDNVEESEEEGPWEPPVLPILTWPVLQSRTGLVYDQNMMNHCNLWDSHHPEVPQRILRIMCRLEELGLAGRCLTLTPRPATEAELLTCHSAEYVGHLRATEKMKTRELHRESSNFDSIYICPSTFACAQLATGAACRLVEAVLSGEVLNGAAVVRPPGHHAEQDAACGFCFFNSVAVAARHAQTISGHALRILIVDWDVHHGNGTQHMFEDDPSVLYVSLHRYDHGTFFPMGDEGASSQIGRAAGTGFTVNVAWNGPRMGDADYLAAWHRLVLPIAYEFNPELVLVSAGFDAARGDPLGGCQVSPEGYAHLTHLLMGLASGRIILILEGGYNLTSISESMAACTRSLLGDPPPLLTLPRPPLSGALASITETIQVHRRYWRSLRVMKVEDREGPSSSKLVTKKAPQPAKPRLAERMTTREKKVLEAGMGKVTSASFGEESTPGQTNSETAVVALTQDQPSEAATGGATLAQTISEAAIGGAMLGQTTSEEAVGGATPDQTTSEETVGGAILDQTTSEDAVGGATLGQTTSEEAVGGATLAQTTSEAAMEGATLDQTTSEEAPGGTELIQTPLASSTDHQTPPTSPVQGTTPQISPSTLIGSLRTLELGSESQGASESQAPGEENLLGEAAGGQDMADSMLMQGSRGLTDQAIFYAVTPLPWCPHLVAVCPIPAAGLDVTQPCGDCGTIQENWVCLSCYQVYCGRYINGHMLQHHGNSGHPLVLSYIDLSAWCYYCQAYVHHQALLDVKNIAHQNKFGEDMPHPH
Method in brief: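 Cells were exposed to compound for 17-18 h, then fixed with formaldehyde and permeabilized with cold MeOH. They were probed for 4 h at 4° C with anti-acetylated tubulin plus HRP anti-mouse IgG (each 1:750), and read by ECL luminescence. EC50 values came from curves normalized to top and bottom controls.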

recombinant human HDAC8 = target: T2, recombinant human HDAC8 (Homo sapiens, UniProt Q9BY41); experiment: HDAC8 inhibition: recombinant HDAC8 fluorometric assay; assay type: biochemical; conditions: recombinant human HDAC8, substrate Ac-Arg-His-Lys-Lys(ε-acetyl)-AMC; read-out: HDAC8 IC50
T2 construct: made in house; host or cells: insect cells
T2 sequence (Q9BY41 1-377): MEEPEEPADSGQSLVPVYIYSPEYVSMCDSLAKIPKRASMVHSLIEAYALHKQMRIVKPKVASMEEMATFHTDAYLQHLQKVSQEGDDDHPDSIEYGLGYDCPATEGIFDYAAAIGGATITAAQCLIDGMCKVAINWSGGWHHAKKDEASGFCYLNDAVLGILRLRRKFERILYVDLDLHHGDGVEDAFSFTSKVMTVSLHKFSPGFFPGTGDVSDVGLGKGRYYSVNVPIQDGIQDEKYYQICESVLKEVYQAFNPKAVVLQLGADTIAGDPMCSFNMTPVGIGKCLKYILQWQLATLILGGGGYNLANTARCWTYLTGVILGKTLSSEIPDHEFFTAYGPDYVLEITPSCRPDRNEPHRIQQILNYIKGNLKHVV
Method in brief: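 Recombinant human HDAC8 from insect cells was preincubated with compound for 15 min at rt, then given Ac-Arg-His-Lys-Lys(ε-acetyl)-AMC substrate for 30 min at rt. IC50 came from normalized percent inhibition with curve fitting.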

Structure (SMILES)	p21 RP3 [1]	p21 RP10 [1]	p21 RP30 [1]	EC50 (HDAC6)	IC50 (recombinant human HDAC8)
CC1(Nc2ccc(C(=O)NO)cc2)CCN(C(C)(C)c2ccccc2)C1=O (stereo not shown) [Example 64, N-Hydroxy-4-[3-methyl-1-(1-methyl-1-phenyl-ethyl)-2-oxo-pyrrolidin-3-ylamino]-benzamide]	0.30	0.04	0.02	10200 nM	320 nM
O=C(NO)c1ccc(NC2CCN(c3ccccc3)C2=O)cc1F (stereo not shown) [Example 66, 2-Fluoro-N-hydroxy-4-(2-oxo-1-phenyl-pyrrolidin-3-ylamino)-benzamide]	0.01	0.01	0.00	2420 nM	1250 nM
O=C(NO)c1ccc(NC2CCN(c3cccc(Cl)c3)C2=O)cc1F (stereo not shown) [Example 67, 4-[1-(3-Chloro-phenyl)-2-oxo-pyrrolidin-3-ylamino]-2-fluoro-N-hydroxy-benzamide]	0.40	0.17	0.02	6230 nM	2120 nM
O=C(NO)c1ccc(NC2CCN(c3ccccc3)C2=O)c(Cl)c1 (stereo not shown) [Example 69, 3-Chloro-N-hydroxy-4-(2-oxo-1-phenyl-pyrrolidin-3-ylamino)-benzamide]	0.36	0.15	−0.03	8230 nM	850 nM
O=C(NO)c1ccc(NC2CC(=O)N(c3cccc(Cl)c3)C2)cc1 (stereo not shown) [Example 72, 4-[1-(3-Chloro-phenyl)-5-oxo-pyrrolidin-3-ylamino]-N-hydroxy-benzamide]	0.16	0.14	0.09	2340 nM	1480 nM
COc1cccc(N2CC(Nc3ccc(C(=O)NO)cc3)CC2=O)c1 (stereo not shown) [Example 74, N-Hydroxy-4-[1-(3-methoxy-phenyl)-5-oxo-pyrrolidin-3-ylamino]-benzamide]	−0.07	0.07	0.12	1840 nM	1010 nM
O=C(NO)c1ccc(NC2CC(=O)N(Cc3ccccc3)C2)cc1 (stereo not shown) [Example 75, 4-(1-Benzyl-5-oxo-pyrrolidin-3-ylamino)-N-hydroxy-benzamide]	0.19	0.07	0.11	4560 nM	860 nM
CC1C(=O)N(c2ccc(Cl)cc2)CC1Nc1ccc(C(=O)NO)cc1 (stereo not shown) [Example 78, 4-[1-(4-Chloro-phenyl)-4-methyl-5-oxo-pyrrolidin-3-ylamino]-N-hydroxy-benzamide]	0.64	0.15	0.04	1810 nM	1830 nM
O=C(NO)c1ccc(NC2CCN(c3ccccc3)C2)cc1 (stereo not shown) [Example 79, N-Hydroxy-4-(1-phenyl-pyrrolidin-3-ylamino)-benzamide]	0.21	0.09	0.04	4540 nM	1700 nM
O=C(NO)c1ccc(NC2CCN(c3ccc(Cl)cc3)C2)cc1 (stereo not shown) [Example 80, 4-[1-(4-Chloro-phenyl)-pyrrolidin-3-ylamino]-N-hydroxy-benzamide]	0.37	0.08	−0.05	4260 nM	4650 nM
O=C(NO)c1ccc(NC2CCN(c3c(Cl)cccc3Cl)C2)cc1 (stereo not shown) [Example 81, 4-[1-(2,6-Dichloro-phenyl)-pyrrolidin-3-ylamino]-N-hydroxy-benzamide]	0.08	−0.04	−0.01	720 nM	1920 nM
O=C(NO)c1ccc(NC2CCN(c3ccc(Cl)cc3Cl)C2)cc1 (stereo not shown) [Example 82, 4-[1-(2,4-Dichloro-phenyl)-pyrrolidin-3-ylamino]-N-hydroxy-benzamide]	0.14	−0.08	−0.06	1430 nM	2360 nM
O=C(NO)c1ccc(NC2CCN(c3ncccn3)C2)cc1 (stereo not shown) [Example 83, N-Hydroxy-4-(1-pyrimidin-2-yl-pyrrolidin-3-ylamino)-benzamide]	0.37	0.11	0.08	1110 nM	1210 nM
O=C(NO)c1ccc(NC2CCN(S(=O)(=O)c3ccc(F)cc3)C2)cc1 (stereo not shown) [Example 85, 4-[1-(4-Fluoro-benzenesulfonyl)-pyrrolidin-3-ylamino]-N-hydroxy-benzamide]	0.35	0.10	0.05	7310 nM	1120 nM
CC1(Nc2ccc(C(=O)NO)cc2)C(=O)N(Cc2ccccc2)c2ccccc21 (stereo not shown) [Example 91, 4-(1-Benzyl-3-methyl-2-oxo-2,3-dihydro-1H-indol-3-ylamino)-N-hydroxy-benzamide]	2.06	2.66	0.84	5230 nM	1280 nM
CC1(Nc2ccc(C(=O)NO)cc2)C(=O)N(Cc2ccccc2Cl)c2ccccc21 (stereo not shown) [Example 92]	0.56	0.20	0.40	330 nM	1740 nM
CC1(Nc2ccc(C(=O)NO)cc2)C(=O)N(Cc2cccc(Cl)c2)c2ccccc21 (stereo not shown) [Example 93, 4-[1-(3-chloro-benzyl)-3-methyl-2-oxo-2,3-dihydro-1H-indol-3-ylamino)-N-hydroxy-benzamide]	0.58	0.12	0.05	410 nM	1920 nM
CC1(Nc2ccc(C(=O)NO)cc2)C(=O)N(c2ccccc2)c2ccccc21 (stereo not shown) [Example 95, N-hydroxy-4-(3-methyl-2-oxo-1-phenyl-2,3-dihydro-1H-indol-3-ylamino)-benzamide]	0.58	0.39	0.60	80 nM	850 nM
CC1(Nc2ccc(C(=O)NO)cc2)C(=O)N(c2cccc(Cl)c2)c2ccccc21 (stereo not shown) [Example 96, 4-[1-(3-chloro-phenyl)-3-methyl-2-oxo-2,3-dihydro-1H-indol-3-ylamino)-N-hydroxy-benzamide]	0.86	1.34	0.02	320 nM	1400 nM
CC1(Nc2ccc(C(=O)NO)cc2)C(=O)N(c2ccc(Cl)cc2)c2ccc(F)cc21 (stereo not shown) [Example 97, 4-[1-(4-Chloro-phenyl)-5-fluoro-3-methyl-2-oxo-2,3-dihydro-1H-indol-3-ylamino]-N-hydroxy-benzamide]	2.39	3.56	0.07	200 nM	2080 nM
